In patent US20160090397A1, “Se-Adenosyl-L-Selenohomocysteine Selenoxide As A Modulator Of Methyltransferase And Other Activities” (priority 2014, published 2016):
“Also recorded” adds a separate entry of the source.

What was measured:
[1] = Stability of SeAHO in aqueous solutions (HPLC, proton NMR); type: physicochemical
Procedure: Characterization of selenoxide SeAHO in an aqueous environment was of greater biological significance.
The selenoxide SeAHO generally appeared to be a 60:40 mixture by ^1H NMR in 50 mM phosphate buffers of D2O at measured pH's of 3 and 7.

[2] = Reduction of selenoxide/sulfoxide by thiols and thioethers at ambient temperature (C18 HPLC); type: physicochemical; settings: for reduction by glutathione (GSH) / reduction by cysteine: ambient temperature; for reduction by glutathione (GSH): C18 HPLC
Text: The sulfoxide SAHO analog was not reduced under these biological conditions with glutathione (GSH) or cysteine. The reduction of sulfoxides generally requires more forcing conditions.

[3] = target: T1, catechol-O-methyltransferase (COMT) (Homo sapiens, UniProt P21964); test: Reduction upon incubation with methyltransferase COMT; type: biochemical
T1 sequence (P21964 1-271): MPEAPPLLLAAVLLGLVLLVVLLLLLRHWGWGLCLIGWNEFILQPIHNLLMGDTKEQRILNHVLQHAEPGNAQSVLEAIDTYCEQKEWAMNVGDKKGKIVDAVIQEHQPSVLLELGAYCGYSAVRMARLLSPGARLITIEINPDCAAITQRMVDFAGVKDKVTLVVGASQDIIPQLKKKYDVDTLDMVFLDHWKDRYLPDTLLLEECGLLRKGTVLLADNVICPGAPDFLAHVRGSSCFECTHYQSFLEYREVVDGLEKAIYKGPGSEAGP
Procedure: (§1) However, SeAHO was not reduced upon incubation with the non-methyltransferase protein lysozyme (data not shown). […] The reduction of SeAHO by methyltransferases may result in the oxidation or modification of these enzymes. This property could be exploited to identify methyltransferases that are reactive with SeAHO, or, depending on the site of oxidation, this process may modulate the activities of methyltransferases. In other words, SeAHO may act as a covalent inhibitor (reactive or suicide inhibitor) or activator of these methyltransferases.

[4] = target: T2, thiopurine methyltransferase (TPMT) (Homo sapiens, UniProt P51580); test: Reduction upon incubation with methyltransferase TPMT; type: biochemical
T2 sequence (P51580 1-245): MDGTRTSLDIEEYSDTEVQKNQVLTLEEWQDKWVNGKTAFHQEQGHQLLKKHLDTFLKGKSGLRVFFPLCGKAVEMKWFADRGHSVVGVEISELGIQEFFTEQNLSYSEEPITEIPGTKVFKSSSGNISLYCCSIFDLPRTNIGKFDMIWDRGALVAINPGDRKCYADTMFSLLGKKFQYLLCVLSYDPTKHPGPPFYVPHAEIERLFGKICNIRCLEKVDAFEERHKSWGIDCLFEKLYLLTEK
Procedure: as §1

[5] = system: lysozyme; test: Incubation with non-methyltransferase protein lysozyme; type: biochemical; settings: data not shown
Procedure: as §1

[6] = target: T1, catechol-O-methyltransferase (COMT); test: COMT-catalysed oxidation of epinephrine to adrenochrome with SeAHO; type: biochemical; settings: various COMT concentrations
Text: This reactivity (redox reaction) conferred by SeAHO can be exploited to oxidize substrate compounds in a selective and specific manner.

[7] = target: T2, thiopurine methyltransferase (TPMT); test: Oxidation of thionitrobenzoate (TNB), Se-SAHO as TPMT substrate (absorbance); type: biochemical
Text: FIG. 1 depicts an absorbance spectrum for Se—SAHO as a thiopurine methyltransferase (TPMT) substrate wherein the oxidation of thionitrobenzoate (TNB) by H2O2 causes a clear shift in absorbance maxima from ˜410 nm to ˜325 nm.

[8] = target: T1, catechol-O-methyltransferase (COMT); settings: in vitro; cited from earlier work
[9] = target: T3, phenylethanolamine N-methyltransferase (PNMT) (Homo sapiens, UniProt P11086); settings: in vitro; cited from earlier work
T3 sequence (P11086 1-282): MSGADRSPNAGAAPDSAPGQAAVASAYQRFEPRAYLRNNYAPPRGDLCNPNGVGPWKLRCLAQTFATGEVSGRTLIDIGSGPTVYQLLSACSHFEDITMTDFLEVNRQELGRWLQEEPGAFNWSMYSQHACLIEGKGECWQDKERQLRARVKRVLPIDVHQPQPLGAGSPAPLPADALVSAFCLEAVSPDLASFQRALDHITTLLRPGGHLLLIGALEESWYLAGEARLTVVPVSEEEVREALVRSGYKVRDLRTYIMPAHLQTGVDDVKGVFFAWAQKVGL

[10] = target: histamine N-methyltransferase (HMT) (Homo sapiens, UniProt P50135); settings: in vitro; cited from earlier work
[11] = target: protein methyltransferase II (Homo sapiens, UniProt P22061); settings: in vitro; cited from earlier work
[12] = system: viral mRNA methyltransferases; settings: in vitro; cited from earlier work
[13] = target: E. coli cyclopropane fatty acid synthase (Escherichia coli, UniProt P0A9H7); settings: in vitro; cited from earlier work
Chain of E. coli cyclopropane fatty acid synthase (P0A9H7 whole entry): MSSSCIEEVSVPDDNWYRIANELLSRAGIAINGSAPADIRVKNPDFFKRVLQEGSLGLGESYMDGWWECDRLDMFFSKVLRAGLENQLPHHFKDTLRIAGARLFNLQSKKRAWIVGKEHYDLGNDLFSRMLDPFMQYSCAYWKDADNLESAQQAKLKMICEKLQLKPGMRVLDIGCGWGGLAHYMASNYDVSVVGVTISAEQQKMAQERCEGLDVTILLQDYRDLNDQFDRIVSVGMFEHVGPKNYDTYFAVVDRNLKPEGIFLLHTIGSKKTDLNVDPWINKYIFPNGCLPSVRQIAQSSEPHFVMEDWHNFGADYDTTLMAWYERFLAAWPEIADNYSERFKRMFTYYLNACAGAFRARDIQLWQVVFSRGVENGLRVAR

Chain of protein methyltransferase II (P22061 whole entry): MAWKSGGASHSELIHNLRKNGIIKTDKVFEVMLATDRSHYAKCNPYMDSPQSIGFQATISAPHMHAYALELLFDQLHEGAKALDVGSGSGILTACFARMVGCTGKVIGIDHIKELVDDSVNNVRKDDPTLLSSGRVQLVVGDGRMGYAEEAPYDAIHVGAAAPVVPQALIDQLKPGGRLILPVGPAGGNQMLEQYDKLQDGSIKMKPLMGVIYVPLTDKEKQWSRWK
Chain of histamine N-methyltransferase (HMT) (P50135 whole entry, species assumed): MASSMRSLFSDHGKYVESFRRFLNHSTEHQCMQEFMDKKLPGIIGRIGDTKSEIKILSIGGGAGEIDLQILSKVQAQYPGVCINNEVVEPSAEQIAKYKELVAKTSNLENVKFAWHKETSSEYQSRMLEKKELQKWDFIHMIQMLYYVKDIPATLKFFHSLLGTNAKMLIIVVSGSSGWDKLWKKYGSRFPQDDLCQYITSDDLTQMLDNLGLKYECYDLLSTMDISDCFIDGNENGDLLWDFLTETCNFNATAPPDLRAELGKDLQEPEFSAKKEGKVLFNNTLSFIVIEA

Row | Molecule | decomposition by HPLC ([1]; after 2 weeks or when prepared in pure deionized water) | decomposition by NMR ([1]; pH 12 phosphate buffer) | stability to hydrolysis of the C1′-adenine bond / degradation ([1]; phosphate buffered aqueous solutions, pH 3-12, ambient temperature, at least three hours, HPLC or proton NMR) | reduction by glutathione (GSH) [2] | reduction by cysteine ([2]; data not shown) | reduction by thioether methionine ([2]; data not shown) | reduction upon incubation with COMT [3] | reduction upon incubation with TPMT [4] | reduction upon incubation with lysozyme [5] | COMT-catalysed oxidation of epinephrine to adrenochrome [6] | oxidation of TNB (shift in absorbance maxima) [7] | inhibition of COMT [8] | inhibition of PNMT [9] | inhibition of HMT [10] | inhibition of protein methyltransferase II [11] | inhibition of viral mRNA methyltransferases [12] | inhibition of E. coli cyclopropane fatty acid synthase [13]
1 | Nc1ncnc2c1ncn2[C@@H]1O[C@H](C[Se](=O)CC[C@H](N)C(=O)O)C(O)[C@@H]1O (some centres unmarked) [SeAHO, Se-Adenosylselenohomocysteine selenoxide] | some decomposition was observed | only a very small amount of decomposition was observed | completely stable | readily reduced | also reduced; also recorded: readily reduced | not by thioethers methionine | reduced to Se-adenosyl-L-selenohomocysteine (SeAH) | reduced to Se-adenosyl-L-selenohomocysteine (SeAH) | not reduced | reacts with epinephrine to form adrenochrome at a rate dependent on COMT concentration; also recorded: catalyzes the oxidation of epinephrine with SeAHO and the production of adrenochrome and SeAH | – | – | – | – | – | – | –
2 | Se-Adenosylselenohomocysteine selenoxide [SeAHO] | – | – | – | – | – | – | – | – | – | – | able to oxidize TNB | – | – | – | – | – | –
3 | Nc1ncnc2c1ncn2[C@@H]1O[C@H](C[S+]([O-])CC[C@H](N)C(=O)O)[C@@H](O)[C@H]1O (some centres unmarked) [SAHO] | – | – | – | not reduced | not reduced | – | remains oxidized | – | – | – | – | inhibitor | inhibitor | inhibitor | inhibitor | inhibitor | inhibitor
